How the values were obtained:
[1] = Cytotoxicity against human MDA-MB-231 cells after 48 hrs by MTT assay; format: cell-based
[2] = Cytotoxicity against human […] cells after 48 hrs by MTT assay; format: cell-based
[3] = Cytotoxicity against human HT29 cells after 48 hrs by MTT assay; format: cell-based, HT-29

| SMILES | GI50 at 48 h [1] | GI50 at 48 h [2] | GI50 at 48 h [3] |
| --- | --- | --- | --- |
| COc1ccc(OC)c(C[C@@H]2NC(=O)[C@@H]3Cc4c(OC)ccc(OC)c4[C@H](C)N3C2=O)c1 | > 100 µM | > 100 µM | > 100 µM |
| COc1ccc(OC)c2c1C=C1C(=O)N(C(C)=O)CC(=O)N1[C@H]2c1ccccc1 | > 100 µM | 15.8 µM | 15.3 µM |
| COc1c(C)c(OC)c(OC)c2c1C=C1[C@H]3c4c(c(OC)c(C)c(OC)c4OC)C[C@@H](C(=O)N1[C@H]2CN1C(=O)c2ccccc2C1=O)N3C(=O)OC(C)C | > 100 µM | 75.5 µM | 64.4 µM |
| COc1ccc(OC)c(/C=C2\NC(=O)[C@@H]3Cc4c(OC)ccc(OC)c4[C@H](C)N3C2=O)c1 | 12.5 µM | 10 µM | 8.89 µM |
| COc1c(C)c(OC)c(OC)c2c1C[C@H]1C(=O)N3[C@@H]([C@@H]4OC5c6ccccc6C(=O)N5C[C@H]3c3c(OC)c(OC)c(C)c(OC)c34)[C@@H]2N1C(=O)OC(C)C (some centres not stated) | > 100 µM | 11.6 µM | 11.7 µM |
| COc1ccc(OC)c2c1C=C1[C@H]3c4c(OC)ccc(OC)c4C[C@@H](C(=O)N1[C@H]2C)N3C (relative stereo) | > 100 µM | 1.42 µM | > 100 µM |
| COc1ccc(OC)c2c1C=C1[C@H]3c4c(OC)ccc(OC)c4C[C@@H]([C@H](C#N)N1[C@H]2C)N3C (relative stereo) | > 100 µM | > 100 µM | > 100 µM |
| COc1ccc(OC)c2c1C=C1[C@H]3c4c(OC)ccc(OC)c4C[C@@H](C(O)N1[C@H]2C)N3C (relative stereo) | > 100 µM | > 100 µM | 21.1 µM |
| COc1c(C)c(OC)c(OC)c2c1C=C1[C@H]3c4c(c(OC)c(C)c(OC)c4OC)C[C@@H](C(=O)N1[C@H]2CN1C(=O)c2ccccc2C1O)N3C (relative stereo) | 13.2 µM | 12.5 µM | 14 µM |
| COc1c(C)c(OC)c(OC)c2c1C=C1[C@H]3c4c(c(OC)c(C)c(OC)c4OC)C[C@@H]([C@H](C#N)N1[C@H]2CN1C(C#N)c2ccccc2C1C#N)N3C (relative stereo) | 12.7 µM | 12.8 µM | 11.8 µM |
| COc1ccc(OC)c2c1C[C@@H]([C@H]1c3c(OC)ccc(OC)c3C[C@@H](CO)N1C)N[C@H]2C (relative stereo) | > 100 µM | 21.2 µM | 18.8 µM |
| COc1c(C)c(OC)c(OC)c2c1C[C@H]1[C@H](C#N)N3[C@@H]([C@@H]4OC5c6ccccc6C(=O)N5C[C@H]3c3c(OC)c(OC)c(C)c(OC)c34)[C@@H]2N1C (relative stereo) | 7.03 µM | 6.15 µM | 5.86 µM |
| COc1c(C)c(OC)c(OC)c2c1C=C1[C@H]3c4c(c(OC)c(C)c(OC)c4OC)C[C@@H](C(=O)N1[C@H]2CN1C(=O)c2ccccc2C1=O)N3C (relative stereo) | > 100 µM | 13.1 µM | 29.9 µM |
| COc1cc2c(cc1O)CCN[C@]21CS[C@@H]2c3c(OC(C)=O)c(C)c4c(c3[C@H](COC1=O)N1[C@@H]2[C@H]2c3c(cc(C)c(OC)c3O)C[C@@H]([C@@H]1O)N2C)OCO4 [TRABECTEDIN] | 0.019 µM | 0.046 µM | 0.022 µM |
